Legend:
[1] = test system: Carbapenem-susceptible Acinetobacter baumannii (10); experiment: In vitro antimicrobial susceptibility testing, broth microdilution MIC; type: cell-based; conditions: 10 strains
Source text: (§1) A total of 44 strains of clinically isolated Gram-negative bacteria were collected for antimicrobial susceptibility testing, including 12 strains of Escherichia coli (carbapenem-susceptible), 12 strains of Klebsiella pneumoniae (carbapenem-susceptible), 10 strains of Acinetobacter baumannii (carbapenem-susceptible), and 10 strains of Pseudomonas aeruginosa (carbapenem-susceptible).
(§2) According to the recommendations of the 2021 edition of the Clinical and Laboratory Standards Institute (CLSI), a broth microdilution method was used to measure the minimum inhibitory concentration (MIC) of a test substance against clinical isolates. • (1) Preparation of antimicrobial drug: The test drug was dissolved and diluted, and the control drug was dissolved and diluted according to CLSI requirements. The test concentration range of the antibacterial drug solution was 0.015 mg/L to 32 mg/L. • (2) Culture medium: Cation adjusted muellerhinton broth (CAMHB), a product of BD Company, USA, batch number: 9324795. • (3) Inoculation amount: Fresh pure colonies on Columbia blood agar were picked using a direct colony suspension method. The colonies were adjusted to a McFarland turbidity of 0.5 and then appropriately diluted. The final concentration of the test bacteria was 10^5 CFU/mL. • (4) Culture conditions: The colonies were cultured in air at 35° C.±2° C. for 16 to 20 hours. • (5) Reading and judgment of results: For colistin, according to the European EUCAST breakpoint judgment standard, a result of <2 mg/L is susceptible, and a result of >4 mg/L is resistant. The lowest antimicrobial drug concentration that inhibits bacterial growth is read as an MIC value. • (6) Quality control strains: Escherichia coli ATCC 25922 and Pseudomonas aeruginosa ATCC 27853. • (7) Data statistics: WHONET version 5.6 software was used to perform statistical analysis on the results of the antimicrobial susceptibility testing.

[2] = test system: Carbapenem-susceptible Escherichia coli (12); experiment: as above; type: cell-based; conditions: 12 strains
Source text: as §1, §2

[3] = test system: Carbapenem-susceptible Gram-negative bacteria (44); experiment: as above; type: cell-based; conditions: 44 strains
Source text: as §1, §2

[4] = test system: Carbapenem-susceptible Klebsiella pneumoniae (12); experiment: as above; type: cell-based; conditions: 12 strains
Source text: as §1, §2

[5] = test system: Carbapenem-susceptible Pseudomonas aeruginosa (10); experiment: as above; type: cell-based; conditions: 10 strains
Source text: as §1, §2

[6] = Safety test, maximum tolerated dose in ICR mice; type: in vivo; conditions: male ICR mice, intravenous injection, 1.5 mg/ml
Source text: The drug safety of colistin sulfate, the nanoparticles of Examples 1 and 2, and the nanoparticles of Comparative Examples 1 and 2 in mice was compared.
Test indicators: clinical observation, animal morbidity/death, and weight change. The maximum compound dosage that causes the weight loss of mice to not exceed 20% and no animal death is the maximum tolerated dose.

[7] = test system: HT29 cells; experiment: Proliferation of HT29 cells in vitro (CCK8); type: cell-based; conditions: 72 hours of drug treatment, read-out: HT-29ReIC50
Description: Cell culture: HT29 (Cat. No.: CBP30001L, purchased from Cobioer) was revived and cultured with 1640+10% FBS.
Plating: Normally growing cells were digested with a trypsin cell digestion solution, then centrifuged, counted, and plated into a 96-well plate at a cell density of 3000 cells/well, 100 μL per well, for a total of 60 wells, and sealed with an appropriate amount of PBS around to prevent water evaporation in the edge wells.
Administration: The administration was performed on the second day after cell plating, 100 μL of a drug solution was added to each well, and two replicate wells were set up for each concentration point.
Detection: After 72 hours of drug treatment, all the liquid in the 96-well plate was poured out, and 100 μL of a CCK8 (diluted to 1:9 with culture medium) solution was added to each well. After incubation at 37° C. for a period of time (OD450 of Vehicle group reached above 1.0), the absorption at 450 nm was detected using an ELISA reader.
Data processing: Inhibition Rate (%)=(1−OD450Sample/OD450Vehicle)×100, where
OD450Sample is the 450 nm absorption value of the drug-treated group, and OD450Vehicle is the 450 nm absorption value of the DMSO control group. GraphPad Prism 8.0 software was used to draw an S-shaped dose-survival rate curve with a nonlinear regression model, and the IC50 value was calculated.

[8] = Safety test, maximum tolerated dose in Balb/c nude mice; conditions: male Balb/c nude mice, intravenous injection, 1.0 mg/ml
Description: Male Balb/c nude mice (purchased from Shanghai Lingchang Experimental Animal Co., Ltd.), 6 to 7 weeks old and weighing 17 g to 21 g, were given platinum cyclohexanediamine dihydrate or a platinum cyclohexanediamine dihydrate polymer-coated nanoparticle solution by intravenous injection at an administration concentration of 1.0 mg/ml. The dose volume was adjusted according to the weight of the animal. The highest dose that enables all subjects in the test to survive continuously is defined as MTD.
Animal grouping: Before starting the administration, the animals were weighed and randomly grouped according to the weight.
Test indicators: After administration, the mice were observed continuously for at least 14 days, and the observation interval and frequency were properly arranged so as to observe the occurrence of toxic reactions, recovery time, animal death time, etc. If the toxic reactions of the mice occur slowly or the mice recover slowly, the observation time should be appropriately extended.

colistin sulfate
MIC50 [1]: 0.5 µg/mL
MIC90 [1]: 0.5 µg/mL
Mode (MIC) [1]: 0.5 µg/mL
Resistance rate (%) ([1]; EUCAST breakpoint): 0%
Susceptibility rate (%) ([1]; EUCAST breakpoint): 100%
MIC50 [2]: 0.125 µg/mL
MIC90 [2]: 0.25 µg/mL
Mode (MIC) [2]: 0.125 µg/mL
Resistance rate (%) ([2]; EUCAST breakpoint): 0%
Susceptibility rate (%) ([2]; EUCAST breakpoint): 100%
MIC50 [3]: 0.5 µg/mL
MIC90 [3]: 2 µg/mL
Mode (MIC) [3]: 0.5 µg/mL
Resistance rate (%) ([3]; EUCAST breakpoint): 0%
Susceptibility rate (%) ([3]; EUCAST breakpoint): 100%
MIC50 [4]: 0.5 µg/mL
MIC90 [4]: 0.5 µg/mL
Mode (MIC) [4]: 0.5 µg/mL
Resistance rate (%) ([4]; EUCAST breakpoint): 0%
Susceptibility rate (%) ([4]; EUCAST breakpoint): 100%
MIC50 [5]: 1 µg/mL
MIC90 [5]: 2 µg/mL
Mode (MIC) [5]: 2 µg/mL
Resistance rate (%) ([5]; EUCAST breakpoint): 0%
Susceptibility rate (%) ([5]; EUCAST breakpoint): 100%
MTD [6]: 8 mg/kg

platinum cyclohexanediamine dihydrate [Cyclohexanediamine platinum dihydrate]
IC50 [7]: 1610 ± 230 nM
MTD [8]: <4 mpk
